Test results from PubChem BioAssay (NCI).
Several values for one entry are separate records, joined by “and”; a condition that tells them apart may be missing. Identical values can stand only once.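 Results reflect a 48-hour exposure of cells in 96-well plates to compound at five concentrations. GI50: concentration for 50% inhibition of growth. TGI marks complete inhibition of growth.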

Columns and labels:
Assay in all cases: growth of human tumour cells (NCI), 48 h
A549 NSCLC = system: A549 NSCLC
CCRF-CEM leukemia = system: CCRF-CEM leukemia
COLO 205 colon = system: COLO 205 colon
HCT-116 colon = system: HCT-116 colon
NCI-H460 lung = system: NCI-H460 lung
NCI-H522 lung = system: NCI-H522 lung
OVCAR-5 ovarian = system: OVCAR-5 ovarian
SF-295 CNS = system: SF-295 CNS
SN12C renal = system: SN12C renal
UACC-62 melanoma = system: UACC-62 melanoma

Structure (SMILES)	TGI (A549 NSCLC)	TGI (CCRF-CEM leukemia)	TGI (COLO 205 colon)	TGI (HCT-116 colon)	TGI (NCI-H460 lung)	TGI (NCI-H522 lung)	TGI (OVCAR-5 ovarian)	TGI (SF-295 CNS)	TGI (SN12C renal)	GI50 (UACC-62 melanoma)	TGI (UACC-62 melanoma)	GI50 (CCRF-CEM leukemia)	GI50 (COLO 205 colon)	GI50 (HCT-116 colon)	GI50 (NCI-H522 lung)	GI50 (OVCAR-5 ovarian)	GI50 (SN12C renal)
CC1(C)OC(=O)C=C([O-])O1.CC1(C)OC(=O)C=C([O-])O1.O=c1c(O)c(-c2ccc([O-])cc2[O-])oc2cc(O)cc(O)c12.[Ti+4]	> 100 µM	> 100 µM	> 100 µM	> 100 µM	> 100 µM	63 µM	> 100 µM	> 100 µM	> 100 µM	33.1 µM	> 100 µM	–	–	–	–	–	–
COc1cc(/C=C/C(=O)O)ccc1OS(=O)(=O)O	> 100 µM	> 100 µM	> 100 µM	> 100 µM	> 100 µM	> 100 µM	> 100 µM	> 100 µM	> 100 µM	–	> 100 µM	–	–	–	–	–	–
COC(=O)c1sc2ncc3c(c2c1N)CC(C)CC3 (stereo not drawn)	> 100 µM	> 100 µM	> 100 µM	> 100 µM	> 100 µM	> 100 µM	> 100 µM	> 100 µM	> 100 µM	–	> 100 µM	–	–	–	–	–	–
COC(=O)[C@H]1C=C[C@H](OC2OC(COC(C)=O)C(OC(C)=O)C(OC(C)=O)C2OC(C)=O)n2c(=O)n(-c3ccccc3)c(=O)n21 (stereo partly drawn)	35.4 µM	16.3 µM	3.6 µM	> 30.5 µM	10.5 µM	0.504 µM	25.7 µM	26.9 µM	19.9 µM	–	3.01 µM	–	–	–	–	–	–
CCNC(=S)N/N=C/c1ccccn1	82.1 µM	> 100 µM	> 100 µM	73.7 µM	27.8 µM	> 100 µM	> 100 µM	> 100 µM	41 µM	–	26.1 µM	–	–	–	–	–	–
O=c1cc(-c2ccccc2F)[nH]c2cc3c(cc12)OCO3	> 100 µM	> 17.7 µM	0.281 µM	> 58.5 µM	> 32.3 µM	0.238 µM	> 100 µM	9.84 µM	> 27.1 µM	–	> 100 µM	–	–	–	–	–	–
CCN(CC(=O)O)CC(=O)O	> 100 µM	> 100 µM	> 100 µM	> 100 µM	> 100 µM	> 100 µM	> 100 µM	> 100 µM	> 100 µM	–	> 100 µM	–	–	–	–	–	–
N#CC(C#N)=Cc1cccc(Oc2ccccc2)c1	> 100 µM	> 100 µM	73.9 µM	32.9 µM	61 µM	51.2 µM	> 100 µM	45.5 µM	48.9 µM	–	53.3 µM	–	–	–	–	–	–
COc1ccc(/C=C/C(=O)c2sc(-n3nc(-c4ccccc4)cc3-c3ccccc3)nc2C)cc1OC	> 100 µM	92.1 µM	> 100 µM	> 100 µM	> 100 µM	53.9 µM	92.6 µM	74.2 µM	> 100 µM	–	52.2 µM	–	–	–	–	–	–
CC(O)(C(=O)N(O)c1ccc(Cl)cc1)c1ccc(Cl)cc1 (stereo not drawn)	> 100 µM	34.4 µM	33 µM	96.1 µM	> 100 µM	46.1 µM	> 100 µM	92.4 µM	> 100 µM	–	> 100 µM	–	–	–	–	–	–
CC(C)(C)c1ccc2c(c1)OCc1n[nH]c(n1)COc1cc(C(C)(C)C)ccc1OCCOCCO2	14.3 µM	26.8 µM	12.6 µM	15.5 µM	12.7 µM	9.07 µM	22.6 µM	12.5 µM	16.7 µM	–	10.4 µM	–	–	–	–	–	–
CCOC(=O)Cc1nn2c(=O)cc(C)nc2s1	> 100 µM	> 100 µM	> 100 µM	> 100 µM	> 100 µM	> 100 µM	> 100 µM	> 100 µM	> 100 µM	–	> 100 µM	–	–	–	–	–	–
CC/C=C\C/C=C\C/C=C\CCCCCCCC(=O)OC(COC(=O)CCCCCCCCCCCCCCCCC)COC1OC(CO)C(O)C(O)C1O (stereo not drawn)	> 25 µM	> 25 µM	> 25 µM	> 25 µM	> 25 µM	> 25 µM	> 25 µM	> 25 µM	> 25 µM	–	> 25 µM	–	–	–	–	–	–
COn1cc(CO)c2ccccc21	> 100 µM	> 100 µM	> 100 µM	> 100 µM	> 100 µM	72.9 µM	42.5 µM	> 100 µM	> 100 µM	–	> 100 µM	–	–	–	–	–	–
COc1cc2c(cc1O)CC[n+]1cc3c(OC)c(OC)ccc3cc1-2	> 100 µM	> 100 µM	> 100 µM	> 100 µM	> 100 µM	> 100 µM	> 100 µM	> 100 µM	> 100 µM	–	> 100 µM	–	–	–	–	–	–
CCOC(=O)/C(=C/c1ccco1)P(=O)(OCC)OCC	> 100 µM	> 100 µM	> 100 µM	> 100 µM	> 100 µM	> 100 µM	> 100 µM	> 100 µM	> 100 µM	–	> 100 µM	–	–	–	–	–	–
NC(CCSCC(F)F)C(=O)O (stereo not drawn)	> 100 µM	> 100 µM	> 100 µM	> 100 µM	> 100 µM	> 100 µM	> 100 µM	> 100 µM	> 100 µM	–	> 100 µM	–	–	–	–	–	–
C=C1CC=CC(C)(C)C1C/C=C(\C)C(O)CBr (stereo not drawn)	> 100 µM	> 100 µM	> 100 µM	> 100 µM	> 100 µM	23.2 µM	> 100 µM	> 100 µM	> 100 µM	–	> 100 µM	–	–	–	–	–	–
CC[P+](C#Cc1ccccc1)(c1ccccc1)c1ccccc1	14.8 µM	1.69 µM	2.59 µM	5.86 µM	11.2 µM	3.32 µM	16.3 µM	21.1 µM	5.41 µM	–	3.45 µM	–	–	–	–	–	–

Structure (SMILES)	TGI (A549 NSCLC)	TGI (CCRF-CEM leukemia)	TGI (COLO 205 colon)	TGI (HCT-116 colon)	TGI (NCI-H460 lung)	TGI (NCI-H522 lung)	TGI (OVCAR-5 ovarian)	TGI (SF-295 CNS)	TGI (SN12C renal)	GI50 (UACC-62 melanoma)	TGI (UACC-62 melanoma)	GI50 (CCRF-CEM leukemia)	GI50 (COLO 205 colon)	GI50 (HCT-116 colon)	GI50 (NCI-H522 lung)	GI50 (OVCAR-5 ovarian)	GI50 (SN12C renal)
COc1ccc(/C=N/Nc2nc3ccccc3c(=O)n2-c2ccccc2)c(OCc2ccccc2)c1	> 100 µM	> 100 µM	> 100 µM	> 100 µM	> 100 µM	> 100 µM	> 100 µM	> 100 µM	> 100 µM	–	> 100 µM	–	–	–	–	–	–
OCC1OC(O[C@H]2CN3[C@H](O)[C@@H](O)[C@H](O)[C@H]3C2O)C(O)C(O)C1O (stereo partly drawn)	> 100 µM	> 100 µM	> 100 µM	> 100 µM	> 100 µM	> 100 µM	> 100 µM	> 100 µM	> 100 µM	–	> 100 µM	–	–	–	–	–	–
CCOC1NC(=O)c2ccccc21 (stereo not drawn)	> 100 µM	> 100 µM	> 100 µM	> 100 µM	> 100 µM	> 100 µM	> 100 µM	> 100 µM	> 100 µM	–	> 100 µM	–	–	–	–	–	–
COc1ccc(CCCCl)c(C2=NCCc3ccccc32)c1	> 100 µM	> 100 µM	82.8 µM	> 100 µM	> 100 µM	> 100 µM	> 100 µM	> 100 µM	> 100 µM	–	> 100 µM	–	–	–	–	–	–
O=C(NCCCNCCCCNCCCNC(=O)C(F)(F)F)C(F)(F)F	> 100 µM	> 100 µM	> 100 µM	> 100 µM	> 100 µM	> 100 µM	> 100 µM	> 100 µM	> 100 µM	–	> 100 µM	–	–	–	–	–	–
C[C@@H]1C(=O)CC2(O)[C@@]13C[C@@H](OC(=O)[C@@H]3O)[C@@H](C)[C@@]21COC1=O (stereo partly drawn)	> 100 µM	> 100 µM	> 100 µM	> 100 µM	> 100 µM	> 100 µM	> 100 µM	> 100 µM	> 100 µM	–	> 100 µM	–	–	–	–	–	–
Nc1n[nH]c2ccccc12	> 100 µM	> 100 µM	> 100 µM	> 100 µM	> 100 µM	> 100 µM	> 100 µM	> 100 µM	> 100 µM	–	> 100 µM	–	–	–	–	–	–
O=C1NN=C(c2c[nH]c3ccccc23)CC1NCc1ccccc1 (stereo not drawn)	> 100 µM	> 100 µM	> 100 µM	> 100 µM	> 100 µM	> 100 µM	> 100 µM	> 100 µM	> 100 µM	–	> 100 µM	–	–	–	–	–	–
O=C(CN=C(CN(c1ccccc1)c1ccccc1)Oc1c(Cl)cc(Cl)cc1Cl)n1cnc2ccccc21	> 100 µM	> 100 µM	> 100 µM	> 100 µM	> 100 µM	> 100 µM	> 100 µM	> 100 µM	> 100 µM	–	> 100 µM	–	–	–	–	–	–
COC(=O)C1=C(C)N2[C@H](C(=O)O)CS[C@@]2(C)[C@H](C(=O)OC)[C@H]1c1cccc([N+](=O)[O-])c1	> 100 µM	> 100 µM	> 100 µM	> 100 µM	> 100 µM	> 100 µM	> 100 µM	> 100 µM	> 100 µM	–	> 100 µM	–	–	–	–	–	–
O=C(/C=C1\C[C@H]2C=Nc3ccccc3C(=O)N2C1)NCCCCCNC(=O)/C=C1\C[C@H]2C=Nc3ccccc3C(=O)N2C1	54.6 µM	12.7 µM	> 21 µM	20.1 µM	36.6 µM	2.51 µM	33.7 µM	33 µM	10.6 µM	–	28.8 µM	–	–	–	–	–	–
CCOC(=O)C(NC(=O)c1ccc(N=NN(C)C)cc1)C(C)C (stereo not drawn)	> 100 µM	> 100 µM	> 100 µM	> 100 µM	> 100 µM	> 100 µM	> 100 µM	> 100 µM	> 100 µM	–	> 100 µM	–	–	–	–	–	–
O=[N+]([O-])c1ccc2nc3c(nc2c1)-c1c2ccccc2cc2cccc-3c12	> 100 µM	> 100 µM	> 100 µM	> 100 µM	> 100 µM	7.85 µM	> 100 µM	59.5 µM	> 100 µM	–	39.2 µM	–	–	–	–	–	–
Cc1ncc([N+](=O)[O-])n1CCNC(=O)CCCCn1ccnc1[N+](=O)[O-]	> 100 µM	> 100 µM	> 100 µM	> 100 µM	> 100 µM	> 100 µM	> 100 µM	> 100 µM	> 100 µM	–	> 100 µM	–	–	–	–	–	–
O=C(O)c1cc2ccccc2c(S(=O)(=O)O)c1O	> 100 µM	> 100 µM	> 100 µM	> 100 µM	> 100 µM	> 100 µM	> 100 µM	> 100 µM	> 100 µM	–	> 100 µM	–	–	–	–	–	–
COc1cc2nc(-c3c(F)cccc3F)n(Cc3c(F)cccc3F)c2cc1Cc1c(F)cccc1F	> 100 µM	> 100 µM	> 100 µM	> 100 µM	> 100 µM	> 100 µM	> 100 µM	> 100 µM	> 100 µM	–	> 100 µM	–	–	–	–	–	–
O=c1oc2ccccc2c2nc3ccccc3cc12	> 100 µM	> 100 µM	> 100 µM	> 100 µM	> 100 µM	> 100 µM	> 100 µM	> 100 µM	> 100 µM	–	> 100 µM	–	–	–	–	–	–
Clc1cccc(C2ON=C(c3ccccc3)N2C23CC4CC(CC(C4)C2)C3)c1Cl (stereo not drawn)	> 10 µM	> 10 µM	> 10 µM	> 10 µM	> 10 µM	> 10 µM	> 10 µM	> 10 µM	> 10 µM	–	> 10 µM	–	–	–	–	–	–
COCC(=O)OC1CCn2c1nc1c2C(=O)C(C)=C(NC(C)=O)C1=O (stereo not drawn)	47.8 µM	1.58 µM and 8.85 µM	29.9 µM	10.4 µM	38.2 µM	14.3 µM	21.6 µM	31.7 µM	18.9 µM	2.08 µM	4.16 µM and 7.52 µM	262 nM	8.72 µM	4.08 µM	5.52 µM	5.91 µM	4.62 µM
